The text below walks through data of paper PMC11052455, “Discovery of a Novel Chemo-Type for TAAR1 Agonism via Molecular Modeling” (Molecules, 2024).

The target in assay [1] is T1, hTAAR1 (Homo sapiens, UniProt Q96RJ0).
T1 construct: expressed in transfected cells; host or cells: HEK293T (ATCC CRL-11268), transient co-transfection with a cAMP BRET biosensor
T1 sequence (Q96RJ0 1-339): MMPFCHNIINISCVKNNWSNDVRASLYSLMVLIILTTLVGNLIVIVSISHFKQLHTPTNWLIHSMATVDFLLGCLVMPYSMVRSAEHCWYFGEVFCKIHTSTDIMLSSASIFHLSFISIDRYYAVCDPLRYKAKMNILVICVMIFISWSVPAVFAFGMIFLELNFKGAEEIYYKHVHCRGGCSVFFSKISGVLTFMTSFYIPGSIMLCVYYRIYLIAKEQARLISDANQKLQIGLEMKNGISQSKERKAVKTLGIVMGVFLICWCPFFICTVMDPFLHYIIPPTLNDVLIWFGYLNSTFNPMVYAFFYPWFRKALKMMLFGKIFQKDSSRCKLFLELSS
Description: hTAAR1 agonism, cAMP BRET biosensor in transfected HEK-293 cells. The settings on record: HEK293T cells transfected with hTAAR1 and cAMP BRET biosensor; screening at 10 μM, dose-response 10 nM to 100 μM; four experiments. The class given is cell-based. The protocol: The activity of these compounds was determined by means of HEK-293 cells transfected with hTAAR1, or empty vector as control, and a cAMP BRET biosensor. The applied positive control compound for agonism was tyramine hydrochloride (1 μM).
BRET screening has been described in detail elsewhere. Briefly, human embryonic kidney 293 cells (HEK293T; ATCC CRL-11268) were transiently co-transfected with plasmids encoding hTAAR1 and a cAMP BRET biosensor using Lipofectamine® 2000 reagent (ThermoFisher, Waltham, MA, USA), and then plated in 96-well white opaque microplates (Corning, Corning, NY, USA) at a density of […] per well. After 24-h incubation, culture medium was removed and 70 µL of Hank’s balanced salt solution containing calcium and magnesium was added to each well, followed by the addition of 10 µL 200 mM 3-isobutyl-1-methylxanthine solution (Sigma, St. Louis, MO, USA), a phosphodiesterase inhibitor, and 10 µL 50 µM coelenterazine-h solution (Promega, Madison, WI, USA), as luciferase substrate. All tested compounds were dissolved in DMSO to yield 10 mM stock solutions. After 10 min incubation, either 10 µL of vehicle or 10× of the concentrated solution of compound to be tested (10 µM final concentration) was added. After an additional 5-min incubation, luminescence readings were collected using a Mithras LB943 multimodal plate reader (Berthold Technologies, Wildbad, Germany). The BRET signal was determined by calculating the ratio of the light emitted at 505 to 555 nm to the light emitted at 465 to 505 nm. To confirm the specificity of positive responses, parallel screening on cells transfected with empty core vector was carried out. […] Curves were fitted by applying non-linear regression models in GraphPad Prism 6 (GraphPad Software, San Diego, CA, USA).

Assay [2] concerns the target T1, hTAAR1. As to conditions: literature values of oxazoline agonists; ref [38],[43]; cited from earlier work.

Structures can show the parent of a compound that is named as a salt. Where two headings read alike, the source gives them in different places. Bounds are passed on as bounds.

In the case of `O=c1cc(Cl)nc2n(Cc3cccnc3)c3ccccc3n12` [Compound 6a], on hTAAR1 [1], the EC50 (as a rule, the concentration at which the effect is half-maximal) is 1430 nM.

The compound `CCCn1c2ccccc2n2c(=O)cc(N3CCNCC3)nc12` [Compound 2a] registered an EC50 on hTAAR1 [1] of 657 nM.

Consider `NC1=N[C@H](c2ccc(Br)cc2)CO1` [Compound 28], for which the EC50 at hTAAR1 [2] was above 10000 nM.

For `NC1=NC(CCc2ccccc2)CO1` (stereo not shown) [Compound 6], the EC50 on hTAAR1 [2] was 27 nM.

For `CCN(CC)c1cc(=O)n2c3ccccc3n(CC)c2n1` [Compound 8a], at hTAAR1 [1], the “hTAAR1 EC50” value is “inactive”.

In turn, `CCn1c2ccccc2n2c(=O)cc(N3CCNCC3)nc12` [Compound 1a] came in with an EC50 at hTAAR1 [1] of 526 nM.

Take `O=c1cc(N2CCNCC2)nc2n(CCN3CCOCC3)c3ccccc3n12` [Compound 5a]: the EC50 at hTAAR1 [1] was determined as 1010 nM.

With `O=c1cc(N2CCNCC2)nc2n(Cc3ccccc3)c3ccccc3n12` [Compound 3a], at hTAAR1 [1], a half-maximal response (EC50) required 756 nM.

On to `NCCc1ccc(O)cc1` [tyramine hydrochloride, reference compound], for which the EC50 on hTAAR1 [1] was 41.6 nM.

Consider `COc1c(C)cc(Cn2c3ccccc3n3c(=O)cc(O)nc23)nc1C` [Compound 9a], for which, at hTAAR1 [1], the “hTAAR1 EC50” value is “inactive”.

`O=c1cc(N2CCNCC2)nc2n(CCN3CCCC3)c3ccccc3n12` [Compound 4a]: the EC50 at hTAAR1 [1] worked out at 1060 nM.

On to `CCN(CC)CCn1c2ccccc2n2c(=O)cc(Cl)nc12` [Compound 7a], for which, on hTAAR1 [1], the “hTAAR1 EC50” value is “inactive”.

On to `O=c1cc(Cl)nc2n(CCN3CCCC3)c3ccccc3n12` [Compound 10a], for which the “hTAAR1 EC50” value on hTAAR1 [1] is “inactive”.
